SMILES strings stand for the structures.

For the assay, the system named is octopamine synthesis mutant (iav) Drosophila melanogaster strain. The format is in vivo. The settings on record: for toxicity in iav strain compared with wild type: in vivo; for % Mortality at LD50 of wild/type Drosophila melanogaster strain, iav: topical, 24 hour.

With `CCC(=O)OCCc1ccccc1` [2-phenylethyl propionate], the “toxicity in iav strain compared with wild type” value is “remarkably increased” and the “% Mortality at LD50 of wild/type Drosophila melanogaster strain, iav” value turned out to be 80.0%.
With `OCC=Cc1ccccc1` [cinnamic alcohol, 3-phenyl-2-propen-1-ol], the “toxicity in iav strain compared with wild type” value is “remarkably increased” and the “% Mortality at LD50 of wild/type Drosophila melanogaster strain, iav” value turned out to be 80.0%.
In the case of `C=CCc1ccc(O)c(OC)c1` [eugenol, 2-methoxy-4-(2-propenyl)phenol], the “toxicity in iav strain compared with wild type” value is listed as “remarkably increased” and the “% Mortality at LD50 of wild/type Drosophila melanogaster strain, iav” value is recorded as 80.0%.
Turning to `CC(C)=CCCC(C)=CCO` [geraniol, 3,7-dimethyl-2,6-octadien-1-ol], the “toxicity in iav strain compared with wild type” value is recorded as “does not affect the toxicity” and the “% Mortality at LD50 of wild/type Drosophila melanogaster strain, iav” value is 60.0%.
Consider `COC(=O)c1ccccc1O` [methyl salicylate, 2-hydroxybenzoic acid methyl ester], for which the “toxicity in iav strain compared with wild type” value was “does not affect the toxicity” and the “% Mortality at LD50 of wild/type Drosophila melanogaster strain, iav” value amounted to 46.6%.
Consider `Cc1ccc(C(C)C)cc1` [p-cymene, methyl(1-methylethyl)benzene], for which the “toxicity in iav strain compared with wild type” value was “does not affect the toxicity” and the “% Mortality at LD50 of wild/type Drosophila melanogaster strain, iav” value is 40.0%.

For the origin of these results see patent US7622269B2, “Methods of screening tyramine- and octopamine-expressing cells for compounds and compositions having potential insect control activity” (Tyratech, Inc., priority 2004, dated 2009).
